The record followed here is patent EP1801112A1, “Bicyclic pyrimidines and bicyclic 3,4-dihydropyrimidines as inhibitors of cellular proliferation” (Warner-Lambert Company LLC, priority 1998, dated 1999).

Assay [1] concerns the target cdk4/D (Homo sapiens, UniProt P11802). Briefly: Cyclin-Dependent Kinase 4 (cdk4) Assay. The format is biochemical.
The target in assay [2] is cdk2/cyclinE (Homo sapiens, UniProt P24941). The assay is described as follows: Cyclin-Dependent Kinase Assay cdk2/cyclinE. The format is biochemical.
Assay [3] deals with cdk2/cyclinA (Homo sapiens, UniProt P24941). The assay is described as follows: Cyclin-Dependent Kinase Assay cdk2/cyclinA. It is filed as biochemical.
Assay [4] deals with cdc2/cyclinB (Homo sapiens, UniProt P06493). The assay is described as follows: Cyclin-Dependent Kinase Assay cdc2/cyclinB. It is filed as biochemical.
Assay [5] has as its target T1, PDGF-β receptor tyrosine kinase (Mus musculus, UniProt P05622).
T1 construct: amplify a fragment of DNA that codes for the intracellular tyrosine kinase domain; made in house; host or cells: SF9 insect cells (baculovirus); crude cell lysate used
The assay is described as follows: PDGF Receptor Tyrosine Kinase Assay. The format is biochemical. The settings on record: glutamate-tyrosine co-polymer substrate, 50 µM ATP. The source says: PDGF and FGF Receptor Tyrosine Kinase Assays
Full-length cDNAs for the mouse PDGF-β and human FGF-1 (flg) receptor tyrosine kinases were obtained from J. Escobedo and prepared as described in J. Biol. Chem., 1991;262:1482-1487. PCR primers were designed to amplify a fragment of DNA that codes for the intracellular tyrosine kinase domain. The fragment was inserted into a baculovirus vector, cotransfected with AcMNPV DNA, and the recombinant virus isolated. SF9 insect cells were infected with the virus to overexpress the protein, and the cell lysate was used for the assay. Assays were performed in 96-well plates (100 µL/incubation/well), and conditions were optimized to measure the incorporation of ^32P from γ^32P-ATP into a glutamate-tyrosine co-polymer substrate. Briefly, to each well was added 82.5 µL of incubation buffer containing 25 mM Hepes (pH 7.0), 150 mM NaCl, 0.1% Triton X-100, 0.2 mM PMSF, 0.2 mM Na3VO4, 10 mM MnCl2, and 750 µg/mL of Poly (4:1) glutamate-tyrosine followed by […] of inhibitor and 5 µL of enzyme lysate (7.5 µg/µL FGF-TK or 6.0 µg/µL PDGF-TK) to initiate the reaction. Following a 10 minute incubation at 25°C, […] of γ^32P-ATP (0.4 µCi plus 50 µM ATP) was added to each well, and samples were incubated for an additional 10 minutes at 25°C. The reaction was terminated by the addition of 100 µL of 30% trichloroacetic acid (TCA) containing 20 mM sodium pyrophosphate and precipitation of material onto glass fiber mats (Wallac). Filters were washed three times with 15% TCA containing 100 mM sodium pyrophosphate, and the radioactivity retained on the filters counted in a Wallac 1250 Betaplate reader. Nonspecific activity was defined as radioactivity retained on the filters following incubation of samples with buffer alone (no enzyme). Specific enzymatic activity (enzyme plus buffer) was defined as total activity minus nonspecific activity. […]

The target in assay [6] is T2, FGF-1 (flg) receptor tyrosine kinase (Homo sapiens, UniProt P11362).
T2 construct: amplify a fragment of DNA that codes for the intracellular tyrosine kinase domain; made in house; host or cells: SF9 insect cells (baculovirus); crude cell lysate used
The assay is described as follows: FGF Receptor Tyrosine Kinase Assay. The format is biochemical. The following applies: glutamate-tyrosine co-polymer substrate, 50 µM ATP.

For assay [7], the target named is T3, c-Src (Homo sapiens, UniProt P12931).
T3 construct: made in house; host or cells: baculovirus infected insect cells
Briefly: c-Src protein kinase assay. The following applies: poly GluTyr substrate, 5 µM ATP. The format is biochemical. The protocol:
The assay was carried out as follows: c-Src kinase was purified from baculovirus infected insect cell lysates using an antipeptide monoclonal antibody directed against the N-terminal amino acids (amino acids 2-17) of c-Src. The antibody, covalently linked to 0.65 µm latex beads, was added to a suspension of insect cell lysis buffer comprised of 150 mM NaCl, 50 mM Tris pH 7.5, 1 mM DTT, 1% NP-40, 2 mM EGTA, 1 mM sodium vanadate, 1 mM PMSF, 1 µg/mL each of leupeptin, pepstatin, and aprotinin. Insect cell lysate containing c-Src protein was incubated with these beads for 3 to 4 hours at 4°C with rotation. At the end of the lysate incubation, the beads were rinsed three times in lysis buffer, resuspended in lysis buffer containing 10% glycerol, and frozen. These latex beads were thawed, rinsed three times in assay buffer (40 mM Tris, pH 7.5, […]) and suspended in the same buffer. In a Millipore 96-well plate with a 0.65 µm polyvinylidine membrane bottom were added the reaction components: 10 µL c-Src beads, 10 µL of 2.5 mg/mL poly GluTyr substrate, 5 µM ATP containing 0.2 µCi labeled ^32P-ATP, 5 µL DMSO containing inhibitors or as a solvent control, and buffer to make the final volume 125 µL. The reaction was started at room temperature by addition of the ATP and quenched 10 minutes later by the addition of 125 µL of 30% TCA, 0.1 M sodium pyrophosphate for 5 minutes on ice. […] The filters were then punched, counted in a liquid scintillation counter, and the data examined for inhibitory activity in comparison to a known inhibitor such as erbstatin. […]

The subject of assay [8] is human umbilical vein endothelial cells. The assay is described as follows: Human Umbilical Vein Endothelial Cell (HUVEC) Proliferation Assay. The settings on record: 96 h, four days incubation, Sulphorhodamine B staining. The format is cell-based. The procedure:
The compounds of Formula I are useful for treating cell proliferative disorders concerning angiogenesis and have been evaluated in a human umbilical vein endothelial cell in vitro assay. The assay described below is used to determine the anti-proliferative effects of the invention compounds on human umbilical vein endothelial cells, and the results are shown in Table 7.
Human Umbilical Vein Endothelial Cell (HUVEC) Proliferation Assay
Ninety-six well tissue culture plates are seeded with 100 µL of cells in all wells of rows A->G with row H remaining empty as a blank. HUVEC (Clonetics, San Diego, CA) are grown in endothelial growth medium (EGM media, Clonetics), containing 2% fetal bovine serum. The cell seed density for HUVEC cells is 20,000 per mL. C6 cells (ATCC Cat. No. CCL-107) are seeded at 6000 per mL in F10 medium (nutrient mixture Hemes) supplemented with 15% horse serum, 2.5% fetal bovine serum, and 6.0 mL 200 mM Glutamine per 600 mL medium. A90 cells (Suny, Buffalo, NY) are also seeded at 6000 per mL, but they are grown in RPMI 1640 (Roswell Park Memorial Institute) plus 10% fetal bovine serum. Unless noted otherwise, tissue culture media and components are from GIBCO. The cells are allowed to incubate at 37°C, 5% CO2, and 100% relative humidity for 16-24 hours.
Invention compounds are prepared by dissolving them in DMSO at a concentration of 5 mM, followed by dilution to 50 µM in EGM media. One hundred microliters of the compounds are applied to duplicate wells in column 1 of the previously prepared cell plates. Column 1 row H receives 100 µL of EGM media. The compounds in column 1 are diluted across the plates using serial twofold dilutions.
The plates are incubated as above for an additional four days before being stained with Sulphorhodamine B. Staining is performed as follows: The media is removed from the plates, and the cells are fixed using 10% trichloroacetic acid for 30 minutes at 4°C. Following fixation, the plates are washed five times with distilled water after which 100 µL of Sulphorhodamine B is added to each well. Sulphorhodamine B is dissolved in 1% acetic acid to a concentration of .075%. Following staining, excess stain is removed from the wells, and the plates are washed four times with 1% acetic acid. The plates are allowed to air dry before the bound dye is solubilized in 100 µL of 10 mM unbuffered TRIS base. Absorbance is measured on a 96 well plate reader at […] using a reference filter wavelength of 630 nm. […] Sulphorhodamine B and TRIS are from Sigma Chemical Company. Acetic acid and trichloroacetic acid are from Mallinckrodt AR.
(In general: Sulforhodamine B stains cellular protein and so reports cell mass.)

The mark [9] stands for this setting: 25 µM ATP, retinoblastoma substrate, read-out: IC50 (µM) cdk4/D.
The mark [10] stands for this setting: retinoblastoma substrate, read-out: IC50 (µM) cdk2/E.
The mark [11] stands for this setting: retinoblastoma substrate, read-out: IC50 (µM) cdk2/A.
Setting [12] is: retinoblastoma substrate, read-out: IC50 (µM) cdkl/B.

Structures are written as SMILES. Like-named read-outs stand apart in the source and are kept apart here.

Sequence of cdc2/cyclinB (P06493 whole entry): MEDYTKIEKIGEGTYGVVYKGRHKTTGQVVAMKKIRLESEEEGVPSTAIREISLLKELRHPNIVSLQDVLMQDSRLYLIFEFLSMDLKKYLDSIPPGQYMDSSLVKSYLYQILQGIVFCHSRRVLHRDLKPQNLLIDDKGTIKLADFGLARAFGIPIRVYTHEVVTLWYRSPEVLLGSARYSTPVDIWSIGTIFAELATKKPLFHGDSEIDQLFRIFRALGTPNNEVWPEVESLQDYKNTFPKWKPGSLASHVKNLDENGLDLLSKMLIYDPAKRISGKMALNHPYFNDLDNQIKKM
Sequence of cdc2/cyclinB (P14635 whole entry, further chain): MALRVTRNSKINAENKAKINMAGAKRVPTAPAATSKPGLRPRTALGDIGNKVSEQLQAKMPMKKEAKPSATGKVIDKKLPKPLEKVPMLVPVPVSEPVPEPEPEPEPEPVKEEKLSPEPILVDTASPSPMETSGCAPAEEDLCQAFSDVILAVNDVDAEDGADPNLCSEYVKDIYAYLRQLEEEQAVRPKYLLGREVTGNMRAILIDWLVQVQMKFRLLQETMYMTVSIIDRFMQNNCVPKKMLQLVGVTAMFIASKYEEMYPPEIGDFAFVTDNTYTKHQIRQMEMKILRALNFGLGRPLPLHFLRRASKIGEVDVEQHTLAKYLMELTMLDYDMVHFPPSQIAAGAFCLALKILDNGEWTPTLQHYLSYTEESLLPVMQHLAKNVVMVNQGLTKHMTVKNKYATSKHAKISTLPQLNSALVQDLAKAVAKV
T3 sequence (P12931 whole entry): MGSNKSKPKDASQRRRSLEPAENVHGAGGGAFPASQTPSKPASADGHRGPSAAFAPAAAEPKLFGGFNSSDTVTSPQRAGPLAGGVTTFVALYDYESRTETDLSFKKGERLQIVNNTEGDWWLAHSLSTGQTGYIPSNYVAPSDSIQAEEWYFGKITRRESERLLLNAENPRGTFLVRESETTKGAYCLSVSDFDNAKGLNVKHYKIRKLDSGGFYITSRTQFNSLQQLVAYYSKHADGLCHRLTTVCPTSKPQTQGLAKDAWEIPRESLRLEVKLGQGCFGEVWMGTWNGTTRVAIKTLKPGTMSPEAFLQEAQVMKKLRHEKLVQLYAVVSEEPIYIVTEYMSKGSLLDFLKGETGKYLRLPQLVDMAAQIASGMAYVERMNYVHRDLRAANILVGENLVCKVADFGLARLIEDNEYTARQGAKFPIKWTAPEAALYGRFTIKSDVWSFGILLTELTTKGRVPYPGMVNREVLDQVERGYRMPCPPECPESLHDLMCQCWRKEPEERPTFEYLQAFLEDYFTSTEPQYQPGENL
T1 sequence (P05622 599-961 limits assumed): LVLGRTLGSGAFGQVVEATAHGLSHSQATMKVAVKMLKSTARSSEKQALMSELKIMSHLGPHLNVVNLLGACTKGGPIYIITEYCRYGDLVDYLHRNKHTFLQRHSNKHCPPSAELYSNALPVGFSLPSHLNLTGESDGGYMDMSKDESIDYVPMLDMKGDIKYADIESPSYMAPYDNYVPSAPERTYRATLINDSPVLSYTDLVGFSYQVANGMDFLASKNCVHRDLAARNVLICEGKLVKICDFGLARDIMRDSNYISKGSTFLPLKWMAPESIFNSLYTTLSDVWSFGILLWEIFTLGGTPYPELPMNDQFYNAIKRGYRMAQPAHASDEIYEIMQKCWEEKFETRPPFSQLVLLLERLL
Sequence of cdk4/D (P11802 whole entry): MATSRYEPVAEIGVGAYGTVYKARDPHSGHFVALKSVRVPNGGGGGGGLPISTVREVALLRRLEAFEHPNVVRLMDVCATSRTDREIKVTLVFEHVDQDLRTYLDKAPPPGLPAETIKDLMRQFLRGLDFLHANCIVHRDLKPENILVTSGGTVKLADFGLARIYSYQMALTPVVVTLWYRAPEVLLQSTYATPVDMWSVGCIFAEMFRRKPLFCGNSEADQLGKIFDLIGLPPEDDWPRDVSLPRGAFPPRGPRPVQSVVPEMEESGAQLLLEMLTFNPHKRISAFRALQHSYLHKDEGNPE
Sequence of cdk4/D (P24385 whole entry, further chain): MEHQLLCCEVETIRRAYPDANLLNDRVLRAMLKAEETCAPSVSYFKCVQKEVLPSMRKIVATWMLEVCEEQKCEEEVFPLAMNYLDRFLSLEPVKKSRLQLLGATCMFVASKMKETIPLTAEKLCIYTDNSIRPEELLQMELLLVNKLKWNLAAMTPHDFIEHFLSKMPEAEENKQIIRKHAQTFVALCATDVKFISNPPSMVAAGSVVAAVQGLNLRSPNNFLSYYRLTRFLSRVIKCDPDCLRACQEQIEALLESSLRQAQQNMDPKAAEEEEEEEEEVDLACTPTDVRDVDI
T2 sequence (P11362 478-767 limits assumed): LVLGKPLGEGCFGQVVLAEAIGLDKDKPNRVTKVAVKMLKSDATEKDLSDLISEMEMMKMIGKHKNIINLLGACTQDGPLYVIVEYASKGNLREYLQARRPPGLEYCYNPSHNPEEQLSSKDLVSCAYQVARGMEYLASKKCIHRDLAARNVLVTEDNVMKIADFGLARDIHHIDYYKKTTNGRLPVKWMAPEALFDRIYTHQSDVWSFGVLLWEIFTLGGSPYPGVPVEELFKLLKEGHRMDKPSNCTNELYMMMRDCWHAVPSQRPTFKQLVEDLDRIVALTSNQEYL

As to `CN1CCN(c2ccc(Nc3ncc4c(n3)N(C3CCCC3)C(=O)NC4)cc2)CC1` [Example 11, 1-Cyclopentyl-7-[4-(4-methylpiperazin-1-yl)phenylamino]-3,4-dihydropyrimido[4,5-d]pyrimidin-2(1H)-one], the IC50 in assay [1] (setting [9]) came out at 0.039 µM; in assay [2] (setting [10]), 2.12 µM; in assay [3] (setting [11]), 0.76 µM; in assay [4] (setting [12]), 11.6 µM; in assay [5], 0.175 µM; in assay [6] it was 0.023 µM. In addition, the IC50 in assay [7] was 710 nM.
With `O=C1NCc2cnc(Nc3ccc(N4CCCC(O)C4)cc3)nc2N1C1CCCC1` (stereo not shown) [Example 16, 1-Cyclopentyl-7-[4-(3-hydroxypiperidin-1-yl)phenylamino]-3,4-dihydropyrimido[4,5-d]pyrimidin-2(1H)-one], the IC50 in assay [1] was determined as 0.63 µM; in assay [2], 1.5 µM; in assay [3], 0.64 µM; in assay [4], 14.9 µM; in assay [5], 0.83 µM; in assay [7], 4120 nM.
In the case of `CC1CN(c2ccc(Nc3ncc4c(n3)N(C3CCCC3)C(=O)NC4)cc2)CC(C)N1` (stereo not shown) [Example 18, 1-Cyclopentyl-7-[4-(3,5-dimethylpiperazin-1-yl)phenylamino]-3,4-dihydropyrimido[4,5-d]pyrimidin-2(1H)-one], the IC50 was 0.35 µM in assay [1], 2 µM in assay [2], 0.21 µM in assay [5] and 400 nM in assay [7].
For `CN1CCN(c2ccc(Nc3ncc4cnc(=O)n(C5CCCC5)c4n3)cc2)CC1` [Example 32, 1-Cyclopentyl-7-[4-(4-methylpiperazin-1-yl)phenylamino]pyrimido-[4,5-d]pyrimidin-2(1H)-one], the IC50 in assay [1] (setting [9]) is 0.05 µM; in assay [2] (setting [10]) it was 1.38 µM; in assay [3] (setting [11]), 0.83 µM; in assay [4] (setting [12]), 7.51 µM; in assay [5], 1.63 µM; in assay [6], 0.37 µM. In addition, the IC50 in assay [7] was 3950 nM.
For `O=c1ncc2cnc(Nc3ccc(N4CCCC(O)C4)cc3)nc2n1C1CCCC1` (stereo not shown) [Example 35, 1-Cyclopentyl-7-[4-(3-hydroxypiperidin-1-yl)phenylamino]pyrimido[4,5-d]-pyrimidin-2(1H)-one], the IC50 in assay [1] turned out to be 0.082 µM; in assay [2], 1.05 µM; in assay [3], 0.99 µM; in assay [4] it was 8.54 µM; in assay [5] it was 2.8 µM; in assay [6], 3.49 µM. The compound further returned an IC50 in assay [7] of 4650 nM.
For `O=c1ncc2cnc(Nc3ccc(N4CCC(CCN5CCOCC5)CC4)cc3)nc2n1C1CCCC1` [Example 39], the IC50 turned out to be 0.3 µM in assay [1]; 1.85 µM in assay [2]; 1.44 µM in assay [3]; 24.6 µM in assay [4]; 3.76 µM in assay [5]; 3230 nM in assay [7].
With `CC(C)n1c(=O)ncc2cnc(Nc3ccc(N4CCC(N(C)C)CC4)cc3)nc21` [Example 41, 7-{4-[4-(Dimethylamino)piperidin-1-yl]phenylamino}-1-isopropyl-pyrimido[4,5-d]pyrimidin-2(1H)-one], the IC50 is above 40 µM in assay [2]; 14.8 µM in assay [3]; above 40 µM in assay [4]; above 50 µM in assay [5]; 11.7 µM in assay [6]; 3060 nM in assay [7].
In the case of `CCN(CC)CCCCNc1ncc2c(n1)N(CC)C(=O)N(c1cc(OC)cc(OC)c1)C2` [Example 53, 7-(4-Diethylamino-butylamino)-3-(3,5-dimethoxy-phenyl)-1-ethyl-3,4-dihydro-pyrimido[4,5-d]pyrimidin-2(1H)-one], the IC50 in assay [5] is 5 µM; in assay [6], 0.06 µM; in assay [8], 192 nM.
